From patent publication US10782295B2, “Cysteine-reactive ligand discovery in proteomes” (THE SCRIPPS RESEARCH INSTITUTE, priority 2013, dated 2020)

Legend:
Test in all cases: competitive isoTOP-ABPP, MDA-MB-231 soluble proteome
Format in all cases: binding
[1] = molecular target: T1, MAP2K6 (Homo sapiens, UniProt P52564); conditions: 100 μM LDE, 60 min; peptide MC*DFGISGYLVDSVAK
T1 construct: directly in native proteomes; endogenous in cells; host or cells: MDA-MB-231
T1 sequence (P52564 1-334): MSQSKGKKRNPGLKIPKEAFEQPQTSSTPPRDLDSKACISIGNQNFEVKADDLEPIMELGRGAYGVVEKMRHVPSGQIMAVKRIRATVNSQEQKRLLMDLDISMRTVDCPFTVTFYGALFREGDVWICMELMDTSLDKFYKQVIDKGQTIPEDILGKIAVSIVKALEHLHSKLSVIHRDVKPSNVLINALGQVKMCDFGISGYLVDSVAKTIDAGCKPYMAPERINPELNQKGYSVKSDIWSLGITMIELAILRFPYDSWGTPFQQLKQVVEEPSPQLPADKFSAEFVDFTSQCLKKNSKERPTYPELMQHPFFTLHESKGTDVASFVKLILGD
Protocol: (§1) Here, we envisioned that isoTOP-ABPP could be advanced to discover and quantify reactions between cysteines in proteomes and any electrophilic compound. In this advanced, ‘competitive’ version of isoTOP-ABPP (FIG. 1a), a proteome is treated with an electrophile (experimental sample) or DMSO (control sample). Both proteomic samples are then labeled with the IA probe and conjugated by CuAAC to light and heavy azide-biotin tags, respectively. The light and heavy samples are then mixed and subjected to our described isoTOP-ABPP protocol for enrichment, identification, and quantification of IA-labeled cysteines^30. Electrophile-modified cysteines are quantified by measuring the MS1 chromatographic peak ratios (R values) for heavy (DMSO-treated) over light (electrophile-treated) samples, with higher R values reflecting greater sensitivity to the electrophile. In this format, competitive isoTOP-ABPP can assay electrophiles against 1000+ cysteines in parallel directly in native proteomes without requiring any chemical modification to the electrophiles themselves.
(§2) Competitive isoTOP-ABPP experiments were performed in quadruplicate using the soluble proteome of the human breast cancer cell line MDA-MB-231 cell line. Proteomes were treated with 100 μM HNE, 15d-PGJ2, or 2-HD, for 60 minutes, followed by the IA-probe (100 μM, 60 min) A total of ˜1400 cysteine reactivities were quantified across the aggregate data set, with at least 900 cysteine reactivities quantified for each LDE (FIG. 2a) more than 750 of which were quantified for all the three electrophiles.
(§3) HNE was purchased from EMD biosciences, 15d-PGJ2 was purchased from Cayman Chemicals and 2-HD was purchased from Santa Cruz Biotechnology. Proteome samples were diluted to a 4 mg protein/mL solution in PBS. For each profiling experiment, one aliquot of the proteome sample (0.5 mL) was treated with 100 μM of LDE using 5 μL of a 10 mM stock and the other aliquot was treated with 5 μL of either ethanol (for HNE and 15d-PGJ2) or DMSO (for 2-HD) as control. For the concentration-dependent profiling experiments using HNE, aliquots of the proteomes (0.5 mL each) were treated with 5, 10, 50, 100 and 500 μM of HNE using 5 μL of 0.5, 1.0, 5, 10 and 50 mM of stock solution, respectively. After 60 minutes of treatment at room temperature, both the LDE-treated and control aliquots were passed through a NAP-5 Sephadex column (GE healthcare) to remove any unreacted LDE. The volume of each aliquot was increased to 1 mL with the concentration at 2 mg/mL after this step.
(§4) Each of the control and LDE-treated proteome samples (˜2 mg protein/mL in 1 mL volume) was treated with 100 μM of IA-probe using 10 μL of a 10 mM stock in DMSO. The labeling reactions were incubated at room temperature for 1 hour. Click chemistry (acetylene-azide cycloaddition) was performed by the addition of 100 μM of either the Heavy-TEV-Tag (for the control sample) or Light-TEV-Tag (for the LDE-treated sample) (20 μL of a 5 mM stock), 1 mM TCEP (fresh 50× stock in water), 100 μM ligand (17× stock in DMSO:t-Butanol 1:4) and 1 mM CuSO4 (50× stock in water). Samples were allowed to react at room temperature for 1 hour. After the click chemistry step, the light and heavy-labeled samples were mixed together and centrifuged (5900×g, 4 min, 4° C.) to pellet the precipitated proteins.
(§5) The pellets were washed twice in cold MeOH, after which the pellet was solubilized in PBS containing 1.2% SDS via sonication and heating (5 min, 80° C.). Samples were subjected to streptavidin enrichment of probe-labeled proteins, sequential on-bead trypsin and TEV digestion, and liquid chromatography-mass spectrometry (LC-MS) analysis according to the published isoTOP-ABPP protocol^30.
(§6) IA-probe labeled peptides were identified by SEQUEST2 and DTASelect3, and the quantification of heavy/light ratios (isoTOP-ABPP ratios, R) was performed by an in-house software (CIMAGE) as previously described. […]

[2] = molecular target: T2, MACROD1 (Homo sapiens, UniProt Q9BQ69); conditions: 100 μM LDE, 60 min; peptide LEVDAIVNAANSSLLGGGGVDGC*IHR
T2 construct: directly in native proteomes; endogenous in cells; host or cells: MDA-MB-231
T2 sequence (Q9BQ69 1-325): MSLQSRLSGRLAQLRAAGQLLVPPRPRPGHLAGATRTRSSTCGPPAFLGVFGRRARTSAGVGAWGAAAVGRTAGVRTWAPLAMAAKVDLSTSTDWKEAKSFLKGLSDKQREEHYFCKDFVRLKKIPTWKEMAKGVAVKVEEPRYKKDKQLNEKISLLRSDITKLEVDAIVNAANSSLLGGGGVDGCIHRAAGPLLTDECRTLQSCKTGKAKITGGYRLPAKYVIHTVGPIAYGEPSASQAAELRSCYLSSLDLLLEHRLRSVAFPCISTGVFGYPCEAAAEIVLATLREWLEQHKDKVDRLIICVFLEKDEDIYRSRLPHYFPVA
Protocol: as §1, §2, §3, §4, §5, §6

[3] = molecular target: T3, RPL23 (Homo sapiens, UniProt P62829); conditions: 100 μM LDE, 60 min; peptide ISLGLPVGAVINC*ADNTGAK
T3 construct: directly in native proteomes; endogenous in cells; host or cells: MDA-MB-231
Protocol: as §1, §2, §3, §4, §5, §6

Structure (SMILES)	R value (isoTOP-ABPP ratio heavy/light) for IA-labeled cysteine of MAP2K6 [1]	R value (isoTOP-ABPP ratio heavy/light) for IA-labeled cysteine of MACROD1 [2]	R value (isoTOP-ABPP ratio heavy/light) for IA-labeled cysteine of RPL23 [3]
CCCCCCCCCCCCC/C=C/C=O [2-HD, 2-trans-hexadecenal]	1.15	1.02	1.87
CCCCCC(O)/C=C/C=O (stereo not drawn) [4-HNE, 4-Hydroxynonenal]	1.9	1.56	1.73
CCCCC/C=C/C=C1/C(=O)C=C[C@@H]1C/C=C\CCCC(=O)O [PGJ2, 15-deoxy-Δ12,14-prostaglandin J2]	7.43	7.65	5.06
